These results are taken from patent US20180327354A1, “Unnatural Analogues of Calcitriol and Uses Thereof” (Vidasym, Inc., priority 2009, published 2018).

Each structure is given as a SMILES string. Like-named read-outs stand apart in the source and are kept apart here.

Data set [1] concerns CYP24A1. In words: CYP24A1 expression induction in HL-60 promyelocytic leukemia cells (real-time RT-PCR). Type of data set: cell-based. The following applies: Homo sapiens; HL-60 cells, 24 h, mRNA normalized to GAPDH; Table 3 summary, some values average of 3 or more determinations; read-out: CYP24A1 EC50. The method, then: (§1) Some compounds were tested in HL-60 promyelocytic leukemia cells and a primary culture of human coronary artery smooth muscle cells (HCASMC) for CYP24A1 induction. It is well documented that CYP24A1 has a VDRE in its promoter region and is a specific target gene of VDR (Meyer et al., 2007, J Biol Chem 282: 22344-22352). […] Compounds also were tested in HCASMC for their effects in inducing VDR. To assess the suitability of a compound for modulating immune responses, compounds were tested in HL-60 for their effects in inducing CD14 expression. To assess the suitability of a compound for treating thrombosis, compounds also were tested in HCASMC for their effects in modulating thrombomodulin and thrombospondin-1.
(§2) Compounds are tested in human HL-60 promyelocytic leukemia cells to assess their potency in inducing the expression of CYP24A1 and CD14. HL-60 cells are cultured in IMDM supplemented with 20% heat-inactivated fetal bovine serum at 37° C. in a humidified 5% CO2-95% air atmosphere. Cells are plated into 6 well plates and treated with test agent for 24 h. Cells are lysed with the addition of 1 mL of Trizol and RNA prepared according to the manufacturer's protocol.
(§3) Real-time reverse transcription-PCR is performed with the forward and reverse PCR primers and 250 nM of the TAQMAN™ probe specifically designed for CYP24A1 or CD14. (A TAQMAN™ probe is comprised of a fluorophore covalently attached to the 5′-end of the oligonucleotide probe and a quencher at the 3′-end.) After the data acquisition, the CYP24A1 or CD14 mRNA expression level is normalized to the GAPDH mRNA level. FIGS. 2A and 2B show the results from a typical CYP24A1 (FIG. 2A) and CD14 (FIG. 2B) expression study.

Data set [2] relates to CD14. The data set is described as follows: CD14 expression induction in HL-60 promyelocytic leukemia cells (real-time RT-PCR). Type of data set: cell-based. The following applies: Homo sapiens; HL-60 cells, 24 h, mRNA normalized to GAPDH; Table 3 summary, some values average of 3 or more determinations; read-out: CD14 EC50. Here is the method: as §1, §2, §3
Background: In qPCR the cycle at which signal appears reflects the starting amount.

In data set [3] the test system is normal mice. In words: Hypercalcemic side effect profile and serum PTH in normal mice. It counts as in vivo, Male C57/BL mice. The settings on record: for dose at which compound starts to raise serum Ca: i.p. dosing once daily for 3 consecutive days. The method, then:
The normal mice model is a convenient and quick way to assess the hypercalcemic side effect profile of compounds. At the same time, data on serum PTH can be collected.
Male C57/BL mice at 18-20 g are dosed with the test agent at 100 al/mouse (concentrations as indicated) i.p. once daily for 3 consecutive days or at 10 ml/kg, p.o. gavage, once daily for 5 days. The animals were harvested 24 h after the last dose by anesthetization with ketamine/xylazine. Blood was collected from the aorta. Serum total calcium was measured using the QuantiChrom Calcium Assay kit and/or the Roche Hitachi 912 Chemistry Analyzer. Serum PTH was measured using a PTH Immunoassay. Vehicle control was 100 l/mouse of 5% EtOH/95% propylene glycol for i.p. dosing or 10 ml/kg of 20% Hydroxypropyl-β-Cyclodextrin for p.o. gavage dosing.
For serum chemistry data, group mean±SEM are presented. Differences between vehicle and compound-treated groups are assessed using a one-way ANOVA followed by a Dunnett's post-hoc test. FIGS. 3A and 3B show the results from a typical p.o. gavage dosing study (n=4-9 per group).

A short description of data set [4]: Maximal absorbance wavelength and extinction coefficient (spectrophotometer scan). Type of data set: physicochemical. The following applies: 100 μM in 50:50 de-ionized water and ethanol; for extinction coefficient: in M-1·cm-1 (unit assumed). The method, then:
To determine the maximal absorbance wavelength (ODmax) and the extinction coefficients for the compounds, each compound is diluted in a 50:50 solution (by volume) of de-ionized water and ethanol at 100 μM and scanned by a spectrophotometer.

Data set [5] deals with uremic rats. The settings on record: cited from earlier work.
Setting [6] is: Slatopolsky et al., 1998, converted from ng/rat.

By EC50 is commonly meant the concentration that produces a half-maximal response.

Take `C[C@@H](OCCC(C)(C)O)C1CCC2/C(=C/C=C3C[C@@H](O)C4(CC4)[C@H](O)C3)CCCC21C` (stereo partly drawn) [Vida-1, (4R,8R)-6-((E)-2-((1S,7αS)-1-((R)-1-(3-hydroxy-3-methylbutoxy)ethyl)-7α-methyldihydro-1H-inden-4(2H, 5H, 6H, 7H, 7αH)-ylidene)ethylidene)spiro[2.5]octane-4,8-diol]: the EC50 in data set [1] worked out at 0.069 µM. Besides, the EC50 in data set [2] came out at 0.022 µM. In data set [3], the “dose at which compound starts to raise serum Ca” value (“dose … to raise serum Ca” for short) was 0.01 µg/kg. Further, in data set [4], the maximal absorbance wavelength was found to be 253 nm and the extinction coefficient was 29550.

For `C[C@@H](OC[C@H](C)C(C)(C)O)C1CCC2/C(=C/C=C3C[C@@H](O)C4(CC4)[C@H](O)C3)CCCC21C` (stereo partly drawn) [Vida-4, (4R,8R)-6-((E)-2-((3αS,7αS)-1-((R)-1-((S)-3-hydroxy-2,3-dimethylbutoxy)ethyl)-7α-methyldihydro-1H-inden-4(2H, 5H, 6H, 7H, 7αH)-ylidene)ethylidene) spiro[2.5]octane-4,8-diol], the EC50 in data set [1] was determined as 0.19 µM. Further, the EC50 in data set [2] came to 0.031 µM. The “fold less potent in raising serum Ca than Vida-1” value in data set [3] (i.p. dosing, FIG. 4) is “at least 100 fold”. In data set [4], this molecule yielded a maximal absorbance wavelength of 253 nm and an extinction coefficient of 23610.

As to `CCC(O)(CC)CCCO[C@H](C)C1CCC2/C(=C/C=C3C[C@@H](O)C4(CC4)[C@H](O)C3)CCCC21C` (stereo partly drawn) [Vida-20, (4R,8R)-6-((E)-2-((1S,7αS)-1-((R)-1-(4-ethyl-4-hydroxyhexyloxy)ethyl)-7α-methyldihydro-1H-inden-4(2H, 5H, 6H, 7H, 7αH)-ylidene)ethylidene)spiro[2.5]octane-4,8-diol], the EC50 in data set [1] worked out at 0.0067 µM. Moreover, the EC50 in data set [2] came out at 0.0016 µM. Further, the “dose … to raise serum Ca” value in data set [3] is 1 µg/kg. In addition, in data set [4], the maximal absorbance wavelength was 253 nm and the extinction coefficient is recorded as 23340.

Take `C=C1[C@H](O)CC(=C/C=C2\CCC[C@]3(C)[C@@H]([C@H](C)COc4ccccc4)CC[C@@H]23)C[C@H]1O` [Vida-36, (1R,3R)-5-((E)-2-((1R,3αS,7αR)-7α-methyl-1-((S)-1-phenoxypropan-2-yl)dihydro-1H-inden-4(2H, 5H, 6H, 7H, 7αH)-ylidene)ethylidene)-2-methylenecyclohexane-1,3-diol]: the values for the EC50 in data set [1] and in data set [2] were 249 µM and 34 µM, respectively. This molecule also registered a maximal absorbance wavelength in data set [4] of 254 nm. The molecule further registered an extinction coefficient in data set [4] of 26850.

As to `C=C1[C@H](O)CC(=C/C=C2\CCCC3(C)C2CCC3[C@@H](C)COc2cccc(C(C)(C)O)c2)C[C@H]1O` (stereo partly drawn) [Vida-37, (1R,3R)-5-((E)-2-(1-((R)-1-(3-(2-hydroxypropan-2-yl)phenoxy)propan-2-yl)-7α-methyldihydro-1H-inden-4(2H, 5H, 6H, 7H, 7αH)-ylidene)ethylidene)-2-methylenecyclohexane-1,3-diol], the EC50 in data set [1] is 0.0061 µM. Further, in data set [2], the EC50 amounted to 0.012 µM. Moreover, the “dose … to raise serum Ca” value in data set [3] is 10 µg/kg. Moreover, in data set [4], the maximal absorbance wavelength stood at 254 nm and the extinction coefficient is 25720.

Consider `C=C1[C@H](O)CC(=C/C=C2\CCCC3(C)C2CCC3[C@@H](C)CSc2cccc(C(C)(C)O)c2)C[C@H]1O` (stereo partly drawn) [Vida-43, (1R,3R)-5-((E)-2-(1-((R)-1-(3-(2-hydroxypropan-2-yl)phenylthio)propan-2-yl)-7α-methyldihydro-1H-inden-4(2H, 5H, 6H, 7H, 7αH)-ylidene)ethylidene)-2-methylenecyclohexane-1,3-diol], for which the EC50 in data set [1] was 0.0069 µM. Also, the EC50 in data set [2] was determined as 0.063 µM. In data set [4], this molecule came in with a maximal absorbance wavelength of 254 nm and an extinction coefficient of 43580.

With `C[C@@H](COc1cccc(C(C)(C)O)c1)[C@H]1CC[C@H]2/C(=C/C=C3C[C@@H](O)C4(CC4)[C@H](O)C3)CCC[C@]12C` [Vida-57, (4R,8R)-6-((E)-2-(1-((R)-1-(3-(2-hydroxypropan-2-yl)phenoxy)propan-2-yl)-7-methyldihydro-1H-inden-4(2H,5H,6H, 7H,7αH)-ylidene)ethylidene)spiro[2.5]octane-4,8-diol], the EC50 in data set [1] was found to be 0.036 µM. For the same molecule, in data set [2], the EC50 came to 0.021 µM. In data set [4], this molecule showed a maximal absorbance wavelength of 253 nm and an extinction coefficient of 49670.

For the molecule `C[C@@H](CSc1cccc(C(C)(C)O)c1)C1CCC2/C(=C/C=C3C[C@@H](O)C4(CC4)[C@H](O)C3)CCCC21C` (stereo partly drawn) [Vida-58, (4R,8R)-6-((E)-2-(1-((R)-1-(3-(2-hydroxypropan-2-yl)phenylthio)propan-2-yl)-7α-methyldihydro-1H-inden-4(2H,5H,6H, 7H, 7αH)-ylidene)ethylidene)spiro[2.5]octane-4,8-diol], the EC50 in data set [1] was 0.049 µM; in data set [2], 0.125 µM.

As for `C=C1/C(=C\C=C2/CCC[C@]3(C)[C@@H]([C@H](C)CCCC(C)(C)O)CC[C@@H]23)C[C@@H](O)C[C@@H]1O` [calcitriol, 1,25-dihydroxyvitamin D3], the “dose at which compound raises serum Ca” value in data set [5] (setting [6]) is about 0.01 µg/kg; in data set [5] (Slatopolsky et al., 1998) it was 4 ng/rat. Moreover, the “dose at which compound starts to suppress serum PTH” value in data set [5] (setting [6]) is about 0.02 µg/kg; in data set [5] (Slatopolsky et al., 1998), 8 ng/rat.
